Measured values reported in US4939138A, “2- and 3-aminomethyl-6-arylcarbonyl-2,3-dihydropyrrolo(1,2,3-DE)-1,4-benzoxazin es” (Sterling Drug Inc., priority 1989, dated 1990).

Assays:
[1] = test system: acetylcholine-induced abdominal constriction; assay: acetylcholine-induced abdominal constriction test (ACH); format: in vivo, mice; settings: for ED50: Mus musculus
From the text: (§1) The test procedures used to determine the analgesic activities of the compounds have been described in detail in the prior art and are as follows: The acetylcholine-induced abdominal constriction test, which is a primary analgesic screening test designed to measure the ability of a test agent to suppress acetylcholine-induced abdominal constriction in mice, described by Collier et al., Brit. J. Pharmacol. Chemotherap. 32, 295 (1968); a modification of the anti-bradykinin test, which is also a primary analgesic screening procedure, described by Berkowitz et al., J. Pharmacol. Exptl Therap. 177, 500-508 (1971), Blane et al., J. Pharm. Pharmacol 19, 367-373 (1967), Botha et al., Eur. J. Pharmacol. 6, 312-321 (1969) and Deffenu et al., J. Pharm. Pharmacol. 18, 135 (1966); the rat paw flexion test, described by Kuzuna et al., Chem. Pharm. Bull., 23, 1184-1191 (1975), Winter et al., J. Pharm. Exptl. Therap., 211, 678-685 (1979) and Capetola et al., J. Pharm. Exptl. Therap. 214, 16-23 (1980); and the mouse vas deferens adrenergic transmission test, described by Henderson et al., Brit. J. Pharmacol., 46, 764-766 (1972).
(§2) In the acetylcholine-induced abdominal constriction test, the test compounds were administered either as suspensions in gum tragacanth (GT) or as aqueous solutions prepared by addition of just sufficient dilute aqueous methanesulfonic acid (MS) or dilute aqueous lactic acid (LA) to dissolve the compound The compounds are identified by the example number above where their preparations are described All data in the anti-bradykinin, rat writhing and Randall-Selitto tests were obtained on oral administration.

mouse vas deferens = mouse vas deferens adrenergic transmission test (MVD); settings: for IC50: concentration producing 50% of the maximum response; for MVD percent inhibition: 10 μM
From the text: as §1
As before, the compounds are identified by the example number above where their preparations are described.

[2] = test system: acetic acid-induced writhing; assay: inhibition of acetic acid-induced writhing in the rat (RW); format: in vivo, rat (male Sprague Dawley); settings: oral; for ED50: Rattus norvegicus
Experimental: (§3) In order to further detail the analgesic profiles of the compounds of the invention, their activities in the inhibition of acetic acid-induced writhing assay in the rat, the inhibition of cyclooxygenase assay and a modification of the Randall-Selitto analgesic test were also determined The test procedure used to determine the inhibition of acetic acid-inducedwrithing in the rat is described as follows.
Male Sprague Dawley rats (Taconic Farms) weighing between 160 and 200g were treated in a random and blind fashion with 1% gum tragacanth vehicle or test agent suspended or dissolved in 1% gum tragacanth. Rats were individually housed in plastic cages (28×18×12 cm) throughout the experiment. Forty-five minutes after drug treatment, 0.5 ml of 9% (w/v) acetic acid was administered intraperitoneally, and animals were returned to their cages for 10 minutes. Writhing is not normally seen during this 10 minute period. Each animal was then observed for a writhing response during a subsequent 10 minute interval (55-65 minutes post-drug treatment). A writhing response was defined as arching of the back with extension of the hindlimbs and contraction of abdominal muscles. […] Data were expressed as percent inhibition of the mean number of writhes in the vehicle treated control group. Data were evaluated for statistical significance by Dunnett's test, and ED50 's for inhibition of acetic acid-induced writhing were determined by the graded dose-response analysis of Tallarida and Murray, Manual of Pharmacologic Calculations with Computer Programs, Springer Verlag, New York (1981).
as §2

cyclooxygenase = assay: inhibition of cyclooxygenase assay (CO); format: biochemical, mice
Experimental: as §3
The test procedure used to determine cyclooxygenase inhibitory activity is described as follows.
Male mice were decapitated and stomach and brain (cerebral cortex, hypothalamus and medulla) were rapidly dissected over ice. The brains were homogenized in 3 volumes of ice cold 0.1 M potassium phosphate buffer, pH 7.4 containing 10 mM EDTA and 1% BSA (w/v). The homogenate was centrifuged at 10,000 xg for 15 minutes. The resulting supernatant was decanted and centrifuged at 100,000 xg for 60 minutes yielding a crude microsomal pellet. The pellet was washed superficially three times in 3 volumes of 0.1 M potassium phosphate buffer before final resuspension in 1.5 volumes of 0.1 M potassium phosphate buffer containing 1 mM norepinephrine and 1 mM reduced glutathione. The microsomes (50 μl) were preincubated with 50 μl of indomethacin (0.3 μM), test compound or norepinephrine/glutathione-containing buffer for 5 minutes at room temperature. The enzyme reaction was initiated by the addition of 50 μl of ^14 C arachidonic acid to yield a final concentration of 10 μM. After a further incubation of 15 minutes at 37° C., the reaction was stopped by the addition of 50 μl of 4M formic acid. Blank values were determined by using microsomes boiled for 5 minutes but otherwise were treated similarly. The ^14 C-labelled material was extracted 3 times with 0.5 ml of ethyl acetate with intermediate centrifugations at 500 xg for 5 minutes to clarify the aqueous and organic phases. This procedure extracted >95% of the ^14 C-labelled materials. The ethyl acetate washes were added to tubes containing 5 μg each of PGE2, PGF2, PGD2, and 10 μg PGI2 in 25 μl of ethanol. The mixture was evaporated to dryness under nitrogen and the residue dissolved in 150 μl of chloroform:methanol (2:1). This solution was spotted on 5×20 cm silica gel plates and chromatographed with an ethyl acetate, trimethylpentane, acetic acid and water mixture (110:50:20:100 by volume) prepared by shaking the solvents and separating and discarding the organic phase. The prostaglandins were visualized in iodine vapor, the various spots were scraped, and the ^14 C-labelled prostaglandins quantitated by liquid scintillation spectroscopy in 10 ml of BIOFLUOR® or FLUORODYNE®.
as §2

bradykinin = assay: anti-bradykinin test (BDK/BRKD); format: in vivo; settings: oral, dose level 300
From the text: as §1, with “(1972). […]” for “(1972).”

[3] = p.o., dose level 100, aqueous methanesulfonic acid (MS)
[4] = p.o., dose level 100, suspension in gum tragacanth (GT)
[5] = 30 μM, negative values = increases over controls, not demonstrated to differ significantly

Compound: Cc1c(C(=O)c2cccc3ccccc23)c2cccc3c2n1C(CN1CCOCC1)CO3 (single isomer, unassigned; (+)) [2B(d), (+)-3-(4-morpholinylmethyl)-5-methyl-6-(1-naphthylcarbonyl)-2,3-dihydropyrrolo1,2,3-de]-1,4-benzoxazine methanesulfonate]
- ED50 ([1]; iv): 0.027 mg/kg
- ED50 ([1]; po, aqueous methanesulfonic acid (MS)): 33 mg/kg
- IC50 (mouse vas deferens): 0.43 ± 0.1 nM
- ED50 [2]: 7.5 mg/kg
- CO percent inhibition (% I) (cyclooxygenase; 100 μM): 9%

Compound: COc1ccc(C(=O)c2c(C)n3c4c(cccc24)OCC3CN2CCOCC2)cc1 (single isomer, unassigned; (+)) [2H(d)]
- IC50 (mouse vas deferens): 44 ± 13 nM

Compound: Cc1c(C(=O)c2cccc3c(Br)cc(Br)cc23)c2cccc3c2n1C(CN1CCOCC1)CO3 (single isomer, unassigned; (+)) [Example 2G, (+)-3-(4-morpholinylmethyl)-5-methyl-6-(5,7-dibromo-1-naphthylcarbonyl)-2,3-dihydropyrrolo[1,2,3-de]-1,4-benzoxazine]
- IC50 (mouse vas deferens): 40 ± 5.4 nM

Compound: CS(=O)(=O)O.Cc1c(C(=O)c2cccc3ccccc23)c2cccc3c2n1C(CN1CCOCC1)CO3 (single isomer, unassigned; (-)) [2B(1), (-)-3-(4-morpholinylmethyl)-5-methyl-6-(1-naphthylcarbonyl)-2,3-dihydropyrrolo[1,2,3-de]-1,4-benzoxazine methanesulfonate]
- ACH percent inhibition ([1]; i.v., dose level 0.3): 20%
- ACH percent inhibition ([1]; i.v., dose level 1): 40%
- ACH percent inhibition ([1]; i.v., dose level 3): 10%
- ACH percent inhibition ([1]; i.v., dose level 5.5): 30%
- ACH percent inhibition ([1]; p.o., dose level 10, aqueous methanesulfonic acid (MS)): 10%
- ACH percent inhibition ([1]; p.o., dose level 30, aqueous methanesulfonic acid (MS)): 10%
- ACH percent inhibition [1, 3]: 10%
- ACH percent inhibition ([1]; p.o., dose level 173, aqueous methanesulfonic acid (MS)): 30%
- MVD percent inhibition (mouse vas deferens): 37%
- IC50 (mouse vas deferens; methanesulfonate): > 10000 nM
- RW percent inhibition ([2]; dose level 100): 12%
- CO percent inhibition (% I) (cyclooxygenase; 100 μM): 10.4%

Compound: COc1ccc(C(=O)c2c(C)n3c4c(cccc24)OCC3CN2CCOCC2)cc1 (single isomer, unassigned; (-)) [2H(1), (-)-3-(4-morpholinylmethyl)-5-methyl-6-(4-methoxybenzoyl) -2,3-dihydropyrrolo[1,2,3-de]-1,4-benzoxazine]
- MVD percent inhibition (mouse vas deferens): 44%
- IC50 (mouse vas deferens): > 10000 nM

Compound: Cc1c(C(=O)c2cccc3ccccc23)c2cccc3c2n1C(CN1CCOCC1)CO3 (stereo not drawn) [1B (CH3 SO3 H), 3-(4-morpholinylmethyl)-5-methyl-6-(1-naphthylcarbonyl)-2,3-dihydropyrrolo1,2,3-de]-1,4-benzoxazine methanesulfonate]
- IC50 (mouse vas deferens): 6 ± 0.6 nM

Compound: Cc1c(C(=O)c2cccc3ccccc23)c2cccc3c2n1C(CN1CCOCC1)CO3 (stereo not drawn) [1B (base)]
- IC50 (mouse vas deferens): 4 ± 2 nM

Compound: COc1ccc(C(=O)c2c(C)n3c4c(cccc24)OCC3CN2CCOCC2)cc1 (stereo not drawn) [Example 1A, 3-(4-morpholinylmethyl)-5-methyl-6-(4-methoxybenzoyl)-2,3-dihydropyrrolo[1,2,3-de]-1,4-benzoxazine]
- ED50 ([1]; iv): 3.4 mg/kg
- ACH percent inhibition [1, 3]: 30%
- ACH percent inhibition [1, 4]: 20%
- IC50 (mouse vas deferens): 123 ± 13 nM
- RW percent inhibition ([2]; dose level 100): 50.6%
- RW percent inhibition ([2]; dose level 300): 23%
- CO percent inhibition (% I) (cyclooxygenase; [5]): 19%
- BRKD percent inhibition (bradykinin): 0%

Compound: Cc1c(C(=O)c2ccc3ncccc3c2)c2cccc3c2n1C(CN1CCOCC1)CO3 (stereo not drawn) [Example 1C]
- ED50 ([1]; iv): 1.8 mg/kg
- ED50 ([1]; po, vehicle not given): 27 mg/kg
- ACH percent inhibition ([1]; s.c., dose level 100, suspension in gum tragacanth (GT)): 0%
- IC50 (mouse vas deferens): 21 ± 0.65 nM
- ED50 [2]: 3.5 mg/kg
- CO percent inhibition (% I) (cyclooxygenase; [5]): -26.2%

Compound: CCc1c(C(=O)c2ccc(OC)cc2)c2cccc3c2n1C(CN1CCOCC1)CO3 (stereo not drawn) [Example 2A, 3-(4-morpholinylmethyl)-5-ethyl-6-(4-methoxybenzoyl)-2,3-dihydropyrrolo[1,2,3-de]-1,4-benzoxazine]
- ACH percent inhibition [1, 4]: 20%
- MVD percent inhibition (mouse vas deferens): 27%
- IC50 (mouse vas deferens): > 10000 nM

Compound: COc1ccc(C(=O)c2cn3c4c(cccc24)OCC3CN2CCOCC2)cc1 (stereo not drawn) [Example 2C, 3-(4-morpholinylmethyl)-6-(4-methoxybenzoyl)-2,3-dihydropyrrolo[1,2,3-de]-1,4-benzoxazine]
- ED50 ([1]; iv): 3.9 mg/kg
- ACH percent inhibition [1, 4]: 30%
- IC50 (mouse vas deferens): 44 ± 9.8 nM
- CO percent inhibition (% I) (cyclooxygenase; [5]): -8.9%

Compound: CS(=O)(=O)O.Cc1c(C(=O)c2ccccc2F)c2cccc3c2n1C(CN1CCOCC1)CO3 (stereo not drawn) [Example 2D, 3-(4-morpholinylmethyl)-5-methyl-6-(2-fluorobenzoyl)-2,3-dihydropyrrolo[1,2,3-de]-1,4-benzoxazine methanesulfonate]
- ED50 ([1]; iv): 2 mg/kg
- ACH percent inhibition [1, 3]: 30%
- IC50 (mouse vas deferens): 76 ± 4 nM

Compound: CS(=O)(=O)O.Cc1c(C(=O)c2ccc(Br)c3ccccc23)c2cccc3c2n1C(CN1CCOCC1)CO3 (stereo not drawn) [Example 2E, 3-(4-morpholinylmethyl)-5-methyl-6-(4-bromo-1-naphthylcarbonyl)-2,3-dihydropyrrolo[1,2,3-de]-1,4-benzoxazine methanesulfonate]
- ACH percent inhibition ([1]; p.o., dose level 100, aqueous lactic acid (LA)): 0%
- ACH percent inhibition [1, 4]: 35%
- IC50 (mouse vas deferens): 2.2 ± 0.2 nM

Compound: O=C(c1cccc2ccccc12)c1cn2c3c(cccc13)OCC2CN1CCOCC1 (stereo not drawn) [Example 2F]
- ACH percent inhibition [1, 4]: 10%
- IC50 (mouse vas deferens): 2 ± 0.03 nM

Compound: Cc1c(C(=O)c2cccc3ccccc23)c2cccc3c2n1CC(CN1CCOCC1)O3 (stereo not drawn) [Example 2I, 2-(4-morpholinylmethyl)-5-methyl-6-(1-naphthylcarbonyl-2,3-dihydropyrrolo1,2,3-de]-1,4-benzoxazine]
- IC50 (mouse vas deferens): 4 ± 2 nM

Compound: (-)-3-(4-morpholinylmethyl)-5-methyl-6-(5,7-dibromonaphthylcarbonyl)-2,3-dihydropyrrolo[1,2,3-de]-1,4-benzoxazine methanesulfonate [Example 1E]
- IC50 (mouse vas deferens): 2620 ± 1700 nM
